The text below walks through data of US20230321246A1, “HIGH-STRENGTH ORAL TAXANE COMPOSITIONS AND METHODS” (ATHENEX HK INNOVATIVE LIMITED, priority 2017, published 2023).

Data set [1] can be described thus: in vivo. To be noted: male, beagle, dog, iv, 2 mg/kg.
A short description of data set [2]: in vivo. To be noted: male, beagle, dog, iv, 2 mg/kg. The source holds these as a separate data set.

For `CC(=O)O[C@H]1C(=O)[C@@]2(C)[C@H]([C@H](OC(=O)c3ccccc3)[C@]3(O)C[C@H](OC(=O)[C@H](O)[C@@H](NC(=O)c4ccccc4)c4ccccc4)C(C)=C1C3(C)C)[C@]1(OC(C)=O)CO[C@@H]1C[C@@H]2O` [Paclitaxel, paclitaxel], in data set [1], the AUC(0-inf) – broadly, total exposure, with the tail of the curve extrapolated – is 1950 ng·h/mL; the AUC(0-t) – broadly, the area under the concentration-time curve up to a stated or last time point – is 1840 ng·h/mL; the Cmax (commonly the peak of the concentration-time curve) worked out at 1690 ng/mL; the MRT (in general, a mean duration of stay, worked out from the concentration-time curve) stood at 3.67 h. In data set [1], the Tmax (commonly the time at which the peak concentration occurs) stood at 1 h, the Vd (usually the apparent volume that relates the amount in the body to the concentration in plasma or blood) stood at 6.59 L/kg and the clearance (commonly the rate of elimination divided by the concentration) was 19.3 mL/min/kg. Moreover, in data set [2], the AUC(0-inf) is 768 ng·h/mL, the area under the curve AUC(0-t) is 701 ng·h/mL, the highest level (Cmax) was 811 ng/mL and the MRT last (usually the average time that molecules of a dose stay in the body) was 5.26 h. Further, in data set [2], the Tmax was 0 h; the Vd worked out at 2.1 L/kg; the clearance is 44.3 mL/min/kg; the half-life (as a rule, how long it takes for the measured level to halve) is 7.57 h.
